Measured values reported in US9724348B2, “Crystalline forms” (VM Therapeutics LLC, priority 2013, dated 2017).

Columns and labels:
[1] = Competitive slurries of polymorphic forms; format: physicochemical; conditions: competitive slurries in IPA, IPA and water, and acetone at ambient temperature and about 40° C.; all gave complete conversion to Form 2
Description: The DSC of Form 2 has a single endotherm at about 160° C. Competitive slurries in IPA, IPA and water, and acetone at ambient temperature and about 40° C., all results in complete conversion to Form 2.

[2] = Solid form conversion on drying or during DSC; format: physicochemical; conditions: drying at 80° C. or during a DSC experiment
Description: Also, Form 5 can be possibly isostructural with Form 2 or Form 2′, or the differences between these forms may relate to the presence or absence of a particular amount of surface water.
Form 5 may convert to a different form (Form 2′) which has a similar X-ray pattern to Form 2 on drying (80° C.), as shown in Table below and FIG. 11 (XRPD), FIG. 12 (^1H-NMR), and FIG. 13 (DSC).

[3] = system: CCI rats; assay: Chronic Constriction Injury (CCI) model of neuropathic pain in rat, von Frey paw withdrawal threshold; format: in vivo
Text: Chronic Constriction Injury (CCI) Model of Neuropathic Pain in Rat. The CCI model is one of the most commonly used mono-neuropathic pain model firstly described in details by Bennett and Xie (Bennett G J, Xie Y K. Pain. 1988; 33(1):87-107). It mimics important clinical chronic pain symptoms such as mechanical allodynia and thermal hyperalgesia. Chronic constriction injury of the sciatic nerve was produced by tying four loose ligatures around the left sciatic nerve according to the method of Bennett and Xie. […] Calibrated von Frey filaments were used to determine the lowest mechanical (tactile) threshold required to evoke a brisk paw withdrawal reflex in the rat hindpaws. Rats were allowed to acclimatize in wire mesh cages for 15-20 min prior to von Frey testing. Assessment of paw withdrawal thresholds (PWTs) using von Frey filaments was undertaken prior to CCI-surgery (pre-surgery baseline on day 0). Before the drug dosing on day 14, the pre-dose baseline was recorded for each rat. […] Drug-naïve CCI-rats (n=4-6 per group) were used. The oral (PO) gavage vehicle was either 10% (w/v) Povidone K25 in water for PO dosing, or 18% (w/v) CrosPovidone in water for PO dosing, or 0.5% CMC-Na/0.1% Tween 80 in distilled water for PO dosing. The positive control gabapentin was dissolved in the vehicle and orally given at 100 mg/kg (by oral gavage). Test article was dissolved or suspended in the vehicle and orally given at 25, 50, 100 and 150 mg/kg. Each CCI-rat was administered a single oral dose of test article, gabapentin or vehicle control, 2 hours before assessment of PWT.

[4] = system: rat CFA-induced inflammatory pain; assay: Rat CFA-induced inflammatory pain model; format: in vivo; conditions: oral dose, FIG. 15
Description: Rat CFA-Induced Inflammatory Pain Model. Hyperalgesia was induced by subcutaneously injecting […] of CFA (Sigma-Aldrich, St. Louis, Mo., USA) into the plantar surface of the left hind paw of the rats using a 30-gauge hypodermic needle under sevoflurane anesthesia. The classical signs of inflammation, including edema and redness, for up the last day of tests were recorded. To assess the effect of test article on CFA-induced inflammatory pain, the rats were anesthetized with sevoflurane 3 hours after CFA injection and then orally dosed with test article (n=6) or vehicle (n=6) or positive control. Paw withdrawal latencies (thermal hyperalgesia) are measured before and at 2 and 4 hours after CFA injection. Mechanical thresholds were also measured in the same way with either the compound of current invention (n=6) or vehicle (n=6) or positive control, Naproxen (n=6) at similar different time points (for example, 1 and 3 hour). The noxious heat and mechanical thresholds were separately measured in each group of rats. The threshold was measured 3-5 times in each rat and then averaged. Stimulus interval was 5 min.

[5] = system: anxiety disorders; conditions: human clinical studies; cited from earlier work
[6] = system: SNL rats; assay: Spinal Nerve Ligation (SNL) mono-neuropathic pain model in rat, von Frey paw withdrawal threshold; format: in vivo; conditions: oral gavage, dose-dependent
Description: Spinal Nerve Ligation (SNL) Mono-Neuropathic Pain Model in Rat. The surgical procedure will be performed according to the method firstly described by Kim and Chung (Kim S H, Chung J M. Pain. 1992; 50(3):355-63.). This procedure will result in tactile allodynia in the left hindpaw. […] The dose-response anti-allodynia effects of test compound: on day 14 after surgery, rats were treated with test article at one of four doses, vehicle or positive control by oral gavage, and PWT was determined by calibrated von Frey filaments at time points of 0 (right before the drug dosing, Pre-Dose Baseline), 0.5, 1, 2, 4 and 6 hr. The anti-allodynia effects of repeated administration of test article: Administration of test article was started on day 7 after surgery, once a day for 7 days. PWT was determined by calibrated von Frey filaments, 2 hour after test article dosing each day. After 7 days dosing, the measurement were continued, every other day without compound dosing for another 7 days. PWT was determined at the time points as given above.

With `Cc1nc2ccccn2c(=O)c1CCN1CCC(C(=O)c2ccc(F)cc2)CC1` [Form 2, 3-(2-{4-[(4-fluorophenyl)carbonyl]piperidin-1-yl}ethyl)-2-methyl-4H-pyrido[1,2-a]pyrimidin-4-one] the “thermodynamic stability of crystalline form” value [1] was “most thermodynamically stable form”.

In the case of `Cc1nc2ccccn2c(=O)c1CCN1CCC(C(=O)c2ccc(F)cc2)CC1` [Form 5, 3-(2-{4-[(4-fluorophenyl)carbonyl]piperidin-1-yl}ethyl)-2-methyl-4H-pyrido[1,2-a]pyrimidin-4-one], the “solid form stability on drying” value [2] is reported as “can convert to a Form 2′ on drying”.

With `NCC1(CC(=O)O)CCCCC1` [gabapentin, reference compound] the “drowsiness, motor incoordination or other abnormality observed” value ([3]; CCI rats after single oral dose) was “drowsiness or motor incoordination”.

With `Cc1nc2ccccn2c(=O)c1CCN1CCC(C(=O)c2ccc(F)cc2)CC1` [Compound 10, 3-(2-{4-[(4-fluorophenyl)carbonyl]piperidin-1-yl}ethyl)-2-methyl-4H-pyrido[1,2-a]pyrimidin-4-one] the “potency relative to positive control gabapentin” value ([3]; CCI rats, oral, gabapentin 100 mg/kg) was “more than 100 time”, the “mechanical allodynia (paw withdrawal threshold)” value ([3]; CCI rats, single oral dose 25, 50, 100 and 150 mg/kg, PWT 2 hours after dosing, dose-dependent, FIG. 14) was “significantly reduced mechanical allodynia” and the “drowsiness, motor incoordination or other abnormality observed” value ([3]; rat, in vivo, po) was “no such effect or other abnormality was observed”. For the same compound, the “analgesic effect compared with positive control Naproxen” value [4] was “more efficacious than positive control Naproxen”, the anti-anxiety effects [5] was “did not show any dose-related anti-anxiety effects” and the safety in human [5] was “safe in human”. For the same compound, the “mechanical allodynia (paw withdrawal threshold)” value [6] was “significantly reduced mechanical allodynia”.
